Assays:
[1] = target: T1, porcine pancreatic PLA2 (Sus scrofa, UniProt P00592); experiment: In Vitro Phospholipase A2 Assay (PLA2); assay type: biochemical; conditions: 0.01M; read-out: PLA2 (difference vs. control)
T1 construct: from tissue; host or cells: porcine pancreas
Method: In Vitro Phospholipase A2 Assay (PLA2)
The ability of a compound to modulate PLA2 activity (cleavage of ^14 C-dipalmitoyl phosphotidylcholine at the 2-position to ^14 C-palmitic acid) was quantitated in this assay. The reaction mixture contained Tris buffer (25 mM), pH 8.0, calcium chloride (2.0 mM), bovine serum albumin (0.5 mg), dipalmitoyl phosphotidylcholine (8×10^-5M), (^14 C-palmitoyl)dipalmitoyl phosphotidylcholine (6×10^3cpm), porcine pancreatic PLA2 (3.2 units) and the test compound. The reaction was run at 37° C. in a shaking incubator. The reaction was quenched and an internal standard was added in order to determine sample recovery. The samples were loaded onto C18 columns, eluted with ethanol, and the radioactivity was then measured. […] See Feyen, J. H. M., et al., Journal of Chromatography 259 (1983), pp. 338-340.

[2] = system: mouse ear edema induced by topical application of arachidonic acid; experiment: Arachidonic Acid-Induced Ear Edema (AAEE); assay type: in vivo, Female Swiss Webster mice; conditions: for AAEE: 1 mg (1.0 mg/ear)
Method: Arachidonic Acid-Induced Ear Edema (AAEE)
Female Swiss Webster mice topically received vehicle or test compound (1.0 mg/ear) on both ears (10 μl on outer and inner ears). After 30 minutes, the right ear of all groups received arachidonic acid (4 mg/ear) and the left ear received vehicle alone. […] See Young, J. M. et al., Invest. Dermatol., 80, (1983), pp 48-52.

[3] = system: epidermal DNA synthesis; experiment: Epidermal DNA Synthesis (in vivo DNA); set-up: species or system HRS/J hairless mice; conditions: topical, hairless mice; for in vivo DNA: 2.5 mg
Method: Epidermal DNA Synthesis (in vivo DNA)
The influence of compounds on the proliferation of skin was assessed by determining inhibition or stimulation of DNA synthesis. HRS/J hairless mice received topical application of a compound or vehicle alone on the dorsal aspect. After 24 hours, ^3 H-thymidine (25 μCi) was administered by intraperitonal injection. After an additional hour, animals were sacrificed and the dorsal skin was removed. The epidermal layer was peeled from the dermis by heat separation. Unincorporated ^3 H-thymidine was removed by washing successively with trichloroacetic acid and ethanol. Samples were centrifuged at 2,000 rpm and supernatants discarded. The epidermal sheets were then extracted with warm trichloroacetic acid and the supernatants analyzed for ^3 H-thymidine incorporation by scintillation counting and total DNA by a standard colorimetric assay. […] See Lowe, N. J., et al., Arch. Dermatol., 117 (1981), pp. 394-8; and Burton, K., Biochem. J. 62 (1956), pp. 315-22.

[4] = system: cultured human epidermal keratinocytes; experiment: Culture Human Keratinocyte DNA Synthesis (in vitro DNA); assay type: cell-based
Method: Culture Human Keratinocyte DNA Synthesis (in vitro DNA)
The effect of a compound on the proliferation of cultured human epidermal keratinocytes was measured. After incubation with a test compound for 24 hours, the cultures were pulse-labelled for three hours with 5 μCi of ^3 H-thymidine. The cultures were extracted for DNA successively with trichloroacetic acid and ethanol, and thereafter dissolved with NaOH. The radioactive incorporation of ^3 H-thymidine into DNA was determined.

[5] = system: ear edema induced by topical application of TPA (phorbol 12-myristate acetate); experiment: TPA-Induced Ear Edema (TPAEE); conditions: for change in vivo at 10 µg/ear: Mus musculus, 5 h, read-out: TPAEE
Method: Female Swiss Webster mice topically received TPA (10 μg/ear) on the right ear and vehicle on the left ear. The test compound (10 μg/ear) was applied to both ears. After five hours, the animals were sacrificed and an ear punch (4 mm) was taken from each ear. The difference in right and left ear punch weights for each animal was determined to assess activity.

[6] = system: naja naja (snake venom) phospholipase A2 -induced paw edema; experiment: Phospholipase A2-induced Paw Edema (PIPE); assay type: in vivo, male Wistar rats; conditions: for PIPE, difference in edema vs. control: 0.1M, rat, subplantar injection, two hours
Method: Phospholipase A2 -induced Paw Edema (PIPE)
The ability of compounds to prevent naja naja (snake venom) phospholipase A2 -induced paw edema in male Wistar rats (100-125 g) was measured. PLA2 (3 units/paw) alone or with 0.1M of the test compound was injected in the subplantar region of the rat left hindpaw. Immediately subsequent to the injection and at two hours post administration the paw was immersed in a mercury bath, and paw displacement was measured on a recorder via a transducer. […] See Giessler, A. J. et al., Agents and Actions, Vol. 10, Trends in Inflammation Research (1981), p. 195.

T1 sequence (P00592 23-146): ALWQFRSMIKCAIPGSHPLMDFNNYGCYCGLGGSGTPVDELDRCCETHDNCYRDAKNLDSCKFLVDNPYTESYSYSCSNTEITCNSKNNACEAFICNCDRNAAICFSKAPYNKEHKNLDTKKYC

Row | SMILES | inhibition at 10000 µM [1] | AAEE [2] | change in vivo at 10 µg/ear [5] | PIPE, difference in edema vs. control [6] | further results
1 | Nc1ccncc1Nc1ccc2cn[nH]c2c1 [N-(4-Amino-3-pyridinyl)-1H-indazol-6-amine] | 57% | -35% | – | – | –
2 | O=[N+]([O-])c1cc[n+]([O-])cc1Nc1ccc2[nH]ccc2c1 [N-(4-Nitro-3-pyridinyl)-1H-indol-5-amine, N^5-oxide] | 71% | – | – | – | –
3 | COc1ccc2c(c1)c(CC(=O)O)c(C)n2C(=O)c1ccc(Cl)cc1 [indomethacin, reference compound] | – | – | – | – | ED50 (Standard) ([2]; AAEE standard): 1.5 mg/ear; ED50 (Standard) ([3]; in vivo DNA standard): 1.75 mg/animal; IC50 ([4]; read-out: IC50 (Standard)): 38 µM
4 | O=[N+]([O-])c1cc[n+]([O-])cc1NC1CCc2ccccc21 (stereo not drawn) [N-(Indan-1-yl)-4-nitro-3-pyridinamine-1-oxide] | – | – | -65% | – | –
5 | O=[N+]([O-])c1cc[n+]([O-])cc1Nc1ccc2[nH]ncc2c1 [N-(4-Nitro-3-pyridinyl)-1H-indazol-5-amine, N^5-oxide] | – | – | -78% | – | –
6 | O=[N+]([O-])c1cnccc1Nc1ccc2[nH]ccc2c1 [N-(3-Nitro-4-pyridinyl)-1H-indol-5-amine] | 36% | – | – | – | –
7 | Nc1cnccc1Nc1ccc2[nH]ccc2c1 [N-(3-Amino-4-pyridinyl)-1H-indol-5-amine] | 82% | -37% | – | – | –
8 | O=[N+]([O-])c1cc[n+]([O-])cc1Nc1cccc2cc[nH]c12 [N-(4-Nitro-3-pyridinyl)-1H-indol-7-amine, N^7-oxide] | – | – | -40% | – | –
9 | Nc1ccncc1Nc1ccc2[nH]ccc2c1 [N-(4-Amino-3-pyridinyl)-1H-indol-5-amine] | 87% | -41% | -85% | -67% | in vivo DNA [3]: -27%; inhibition at 50 µM ([4]; 50 μM, 24 hours): 81%
10 | O=[N+]([O-])c1cc[n+]([O-])cc1Nc1ccc2c(c1)CCC2 [N-(Indan-5-yl)-4-nitro-3-pyridinamine-1-oxide] | – | -44% | -48% | – | –
11 | Nc1cc[n+]([O-])cc1Nc1cccc2cc[nH]c12 [N-(4-Amino-3-pyridinyl)-1H-indol-7-amine, N^7-oxide] | – | – | -38% | -45% | –
12 | Nc1cnccc1Oc1ccc2[nH]ccc2c1 [4-[(1H-Indol-5-yl)-oxy]-3-pyridinamine, 4-[(1H-Indol-5-yl)oxy]-3-pyridinamine] | – | – | – | -52% | –
13 | Nc1ccncc1Oc1ccc2[nH]ccc2c1 [3-[(1H-Indol-5-yl)-oxy]-4-pyridinamine, 3-[(1H-Indol-5-yl)oxy]-4-pyridinamine] | 34% | -50% | -42% | -62% | in vivo DNA [3]: -37%
14 | Cn1ccc2cc(Nc3cnccc3N)ccc21 [N-(4-Amino-3-pyridinyl)-1-methyl-1H-indol-5-amine] | 62% | – | – | -42% | –
15 | Cn1ccc2cc(Nc3c[n+]([O-])ccc3[N+](=O)[O-])ccc21 [1-Methyl-N-(4-nitro-3-pyridinyl)-1H-indol-5-amine, N^5-oxide] | 66% | – | -30% | -41% | –
16 | Nc1ccncc1Nc1ccc2c(c1)CCC2 [N^3-(Indan-5-yl)-3,4-pyridinediamine] | – | -49% | -75% | – | –
17 | C[C@]12CCC(=O)C=C1CC[C@@H]1[C@@H]2[C@@H](O)C[C@@]2(C)[C@H]1CC[C@]2(O)C(=O)CO [hydrocortisone, reference compound] | – | – | – | – | ED50 (Standard) ([6]; PIPE standard, rat paw): 0.46 M; ED50 (Standard) ([5]; TPAEE standard, mouse): 47 μg/ear
18 | CC(=O)N1CCc2cc(Nc3cnccc3N)ccc21 [1-Acetyl-N-(4-amino-3-pyridinyl)-2,3-dihydro-1H-indol-5-amine] | – | -36% | – | – | –
19 | O=[N+]([O-])c1cc[n+]([O-])cc1Nc1ccc2cn[nH]c2c1 [N-(4-Nitro-3-pyridinyl)-1H-indazol-6-amine, N^6-oxide] | 83% | – | – | – | –
